Measurements: patent publication US12583853B2, “1H-pyrrolo[2,3-b]pyridine derivatives and related compounds as BCL-2 inhibitors for the treatment of neoplastic and autoimmune diseases” (Newave Pharmaceutical Inc., priority 2018, dated 2026)
Blank lines part the entries; values can stand above or below the compound they belong to.

Key:
Mcl-1 = Mcl-1 (Homo sapiens, UniProt Q07820); details: cited from earlier work
RS4; 11 cells = details: cited from earlier work
CLL = details: read-out: average EC50, apoptosis in CLL; cited from earlier work
RS4; 11 xenografts = details: single dose of 100 mg/kg; cited from earlier work
[1] = test system: xenograft (DoHH2, Granta-519); details: single agent or in combination with Bendamustine and other agents; cited from earlier work
Bcl-w = biological target: T1, Bcl-w (Homo sapiens, UniProt Q92843); details: cited from earlier work
T1 sequence (Q92843 1-193): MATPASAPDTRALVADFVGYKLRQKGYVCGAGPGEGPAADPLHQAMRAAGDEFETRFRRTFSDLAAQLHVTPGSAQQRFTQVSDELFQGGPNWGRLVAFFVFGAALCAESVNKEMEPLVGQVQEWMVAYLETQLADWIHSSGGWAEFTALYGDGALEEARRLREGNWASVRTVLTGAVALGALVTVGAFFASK

SCLC H146 cell line = details: read-out: IC50 against SCLC H146 cell line; cited from earlier work
H345 xenograft = details: 100 mg/kg/day, H345 xenograft model; cited from earlier work
[2] = test system: xenograft models of small-cell lung cancer and acute lymphoblastic leukemia; details: oral administration, alone; cited from earlier work
circulating platelets = details: clinical trial, patients; cited from earlier work
[3] = in vivo; cited from earlier work
[4] = cited from earlier work
Bcl-2 = biological target: T2, Bcl-2 (Homo sapiens, UniProt P10415); experiment: Bcl-2 competition binding (fluorescence polarization) assay; details: for IC50: fluorescence polarization, 3 hours incubation at room temperature, read-out: BCL2 IC50; for BCL2 inhibitor potency in words: statement on the BCL2 IC50 table
T2 construct: purchased R&D Systems, Inc
T2 sequence (P10415 whole entry): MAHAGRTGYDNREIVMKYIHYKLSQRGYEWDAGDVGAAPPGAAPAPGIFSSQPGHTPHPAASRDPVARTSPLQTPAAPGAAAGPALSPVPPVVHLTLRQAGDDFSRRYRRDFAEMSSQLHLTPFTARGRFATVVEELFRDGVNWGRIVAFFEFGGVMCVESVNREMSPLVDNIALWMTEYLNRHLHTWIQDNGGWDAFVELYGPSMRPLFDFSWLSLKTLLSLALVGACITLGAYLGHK
Protocol: Biological Example 1: Bcl-2 Competition Binding (Fluorescence Polarization) Assay
This binding assay was performed in 96-well plate and with each assay contained 15 and 30 nM of labeled peptide and purified Bcl-2 protein (purchased from R&D Systems, Inc). The assay buffer contained 20 mM Hepes (pH 7.0), 50 mM KCl, 5 mM MgCl2, 20 mM Na2MoO4, 0.1 mg/ml Bovine Gamma Globulin and 0.01% NP40. Compounds were diluted in DMSO and added to the final assay with concentration range from 20 μM to 2 nM. The polarization degree (mP) value was determined by BioTek Synergy II with background subtraction after 3 hours of incubation at room temperature. IC50 was calculated using Prism software with sigmoidal dose-response curve fitting. ABT-737 was used as reference compound. Such assays, carried out with a range of doses of test compounds, allowed the determination of an approximate IC50 value.

Chain of Mcl-1 (Q07820 whole entry, species assumed): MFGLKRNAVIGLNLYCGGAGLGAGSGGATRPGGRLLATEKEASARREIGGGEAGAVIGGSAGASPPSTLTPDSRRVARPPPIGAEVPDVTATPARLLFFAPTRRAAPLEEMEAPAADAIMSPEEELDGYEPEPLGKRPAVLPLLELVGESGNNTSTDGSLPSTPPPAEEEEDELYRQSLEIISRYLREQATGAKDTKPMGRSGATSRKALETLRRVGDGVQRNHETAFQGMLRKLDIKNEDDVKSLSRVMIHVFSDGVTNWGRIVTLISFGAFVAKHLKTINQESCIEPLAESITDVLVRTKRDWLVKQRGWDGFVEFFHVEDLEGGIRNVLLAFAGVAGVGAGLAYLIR

Compound: CC1(C)CCC(CN2CCN(c3ccc(C(=O)NS(=O)(=O)c4ccc(NCC5CCOCC5)c([N+](=O)[O-])c4)c(Oc4cnc5[nH]ccc5c4)c3)CC2)=C(c2ccc(Cl)cc2)C1 [ABT-199]
activity to Mcl-1 (Mcl-1): no activity | EC50 (RS4; 11 cells): 8 nM | EC50 (CLL): 3 nM | maximal tumor growth inhibition (RS4; 11 xenografts): 95% | tumor growth delay (RS4; 11 xenografts): 152% | xenograft growth [1]: inhibits xenograft growth

Compound: CC1(C)CCC(c2ccc(Cl)cc2)=C(CN2CCN(c3ccc(C(=O)NS(=O)(=O)c4ccc(N[C@H](CCN5CCOCC5)CSc5ccccc5)c(S(=O)(=O)C(F)(F)F)c4)cc3)CC2)C1 [ABT-263]
Ki (Bcl-w): ≤ 1 nM | IC50 (SCLC H146 cell line): 110 nM | TGI (H345 xenograft): 80% | treated tumors indicating at least a 50% reduction in tumor volume (H345 xenograft): 20% | tumor response [2]: complete tumor regressions | effect on circulating platelets (circulating platelets): rapid, concentration-dependent decrease in the number of circulating platelets | oral bioavailability [3]: orally bioavailable

Compound: CN(C)CC[C@H](CSc1ccccc1)Nc1ccc(S(=O)(=O)NC(=O)c2ccc(N3CCN(Cc4ccccc4-c4ccc(Cl)cc4)CC3)cc2)cc1[N+](=O)[O-] [ABT-737]
oral bioavailability [3]: not orally bioavailable | aqueous solubility [4]: low aqueous solubility

IC50 (Bcl-2): 0.45 nM | BCL2 inhibitor potency in words (Bcl-2): highly potent BCL2 inhibitor
Compound: CC1(C)CCC(CN2CCN(c3ccc(C(=O)NS(=O)(=O)c4ccc(NCC5CCOCC5)c([N+](=O)[O-])c4)c(P(C)(=O)c4cnc5[nH]ccc5c4)c3)CC2)=C(c2ccc(Cl)cc2)C1 (centres unmarked) [Example 1, 4-(4-[[2-(4-chlorophenyl)-4,4-dimethylcyclohex-1-en-1-yl]methyl]piperazin-1-yl)-2-[methyl(1H-pyrrolo[2,3-b]pyridin-5-yl)phosphoroso]-N-[3-nitro-4-[(oxan-4-ylmethyl)amino]benzenesulfonyl]benzamide]

IC50 (Bcl-2): 0.8 nM
Compound: CC1(C)CCC(CN2CCN(c3ccc4c(c3)C(c3cnc5[nH]ccc5c3)CN(S(=O)(=O)c3ccc(NC[C@H]5COCCO5)c([N+](=O)[O-])c3)C4=O)CC2)=C(c2ccc(Cl)cc2)C1 (stereo partly drawn) [Example 2, 6-(4-[[2-(4-chlorophenyl)-4,4-dimethylcyclohex-1-en-1-yl]methyl]piperazin-1-yl)-2-(4-[[(2S)-1,4-dioxan-2-ylmethyl]amino]-3-nitrobenzenesulfonyl)-4-[1H-pyrrolo[2,3-b]pyridin-5-yl]-3,4-dihydroisoquinolin-1-one]

IC50 (Bcl-2): 1.3 nM | BCL2 inhibitor potency in words (Bcl-2): highly potent BCL2 inhibitor
Compound: C=C(c1cnc2[nH]ccc2c1)c1cc(N2CCN(CC3=C(c4ccc(Cl)cc4)CC(C)(C)CC3)CC2)ccc1C(=O)NS(=O)(=O)c1ccc(NC[C@H]2COCCO2)c([N+](=O)[O-])c1 [Example 3, (S)—N-((4-(((1,4-dioxan-2-yl)methyl)amino)-3-nitrophenyl)sulfonyl)-2-(1-(1H-pyrrolo[2,3-b]pyridin-5-yl)vinyl)-4-(4-((4′-chloro-5,5-dimethyl-3,4,5,6-tetrahydro-[1,1′-biphenyl]-2-yl)methyl)piperazin-1-yl)benzamide]
